Like-named read-outs stand apart in the source and are kept apart here.
How the values were obtained:
[1] = tested on: Japanese pear “Kousui”; conditions: observed on February 5
Experimental: The flower bud differentiation rate was surveyed by observing winter buds with the unaided eye for each of long fruiting branches and short fruiting branches for every section on February 5 of the next year. The flower bud differentiation rate was calculated as a proportion of the flower bud number (mixed flower buds) to the total winter bud number, provided that the last-year branch was regarded as 1 unit, to which branch a long fruiting branch or a short fruiting branch attached.

[2] = tested on: Japanese pear “Kousui”
Experimental: Regarding the sugar concentration of fruits, the sugar content (Brix) of the fruits harvested on August 24 of the year. The content of the individual sugar species was measured by selecting 10 fruits from each section to obtain fruit juices prepared by pressing the fruits, filtering each juice with a membrane filter having a 0.45 μm diameter, and then, quantifying the sugar content for every sugar species by HPLC (Column: “Shim-pack SCR-101C”, Column temperature: 80° C., Solvent: water (1 mL/min); and Detector: RI).

[3] = tested on: adult grape tree (cultivar Cabernet sauvignon)
Experimental: The aqueous proline solution, which had been prepared by dissolving the high purity proline as described above into water to provide a 200 ppm concentration and adding 10 mL of “ATLOX BI” (wetting agent) thereto, was sprayed on the adult grape tree (cultivar Cabernet sauvignon) with an interval of 15 days during the period from the end of June to the middle of September in a year, which is the véraison period as the fruit growing period.
The sprayed amount was a certain amount to allow the solution to drop down from the leaf surfaces. The control section was assigned to another non-sprayed adult tree. Both the test section and the control section were harvested on October 25 in that year to analyze sweetness and a red-colored state. Sweetness was evaluated in terms of the sugar content (Brix) of a juice prepared by mixing and pulverizing seed-removed fruits and pericarps. Colored state (red) was evaluated by measuring a light absorbance of the juice at 522 nm.
According to the market evaluation for a grape cultivar for red wine and a red grape cultivar such as Kyohou, the stronger the coloration (red) of the pericarp is, the better the quality is.

[4] = tested on: Japanese pear “Kousui”; conditions: average Score (+3 to −3) of sprayed product, non-sprayed product = Score 0
Experimental: In this connection, the scores of the sprayed product shown in Table 5 were counted by the following way. I.e., this was carried out in a paired comparison method where the “non-sprayed product” was assigned to Score 0 (control), and the “sprayed product” was scored by 7-class evaluation consisting of Scores +3, +2, +1, 0, −1, −2, and −3, employing a plurality of panels. Next, average values of the results of scoring the “sprayed product” by the plurality of panels were calculated and the average values were assigned to the Scores of the “sprayed product” in Table 5.

[5] = tested on: Japanese pear “Kousui”; remark: listed apart in the source
[6] = pear fruit juice, harvested on August 24, HPLC, n = 10
[7] = grape juice, harvested October 25, 200 ppm proline sprayed every 15 days

O=C(O)[C@@H]1CCCN1 [proline, L-proline]
flower bud differentiation rate ([1]; long fruiting branch, Total): 39.83%
flower bud differentiation rate ([1]; long fruiting branch, Tree No. 1): 40.60%
flower bud differentiation rate ([1]; long fruiting branch, Tree No. 2): 39.05%
flower bud differentiation rate ([1]; short fruiting branch, Total): 39.38%
flower bud differentiation rate ([1]; short fruiting branch, Tree No. 1): 40.83%
flower bud differentiation rate ([1]; short fruiting branch, Tree No. 2): 37.93%
Fructose content in the fruits [2, 6]: 56.74 mg/mL
Glucose content in the fruits [2, 6]: 18.67 mg/mL
Sorbitol content in the fruits [2, 6]: 28.83 mg/mL
Sucrose content in the fruits [2, 6]: 62.09 mg/mL
Total individual sugar contents in the fruits [2, 6]: 166.12 mg/mL
Sugar content (Brix) ([2]; pear fruits harvested on August 24, 200 ppm proline sprayed): 11.7 ± 0.1 Brix
pericarp color ([2]; pear fruits harvested on August 24, proline-treated section): somewhat red pericarp
Colored degree (OD at 522 nm) [3, 7]: 0.14 OD at 522 nm
Sugar content (Brix) [3, 7]: 20.3 Brix
increment of anthocyanin content in the juice ([3]; grape juice, proline-sprayed section vs control section): about 20%
difference in the size of fruits ([3]; grape, proline-sprayed section vs control section): No difference
Apparent color [4]: 0.06
Comprehensive evaluation [4]: 0.74
Hardness [4]: −0.13
Juiciness [4]: 0.02
Preferableness of sourness [4]: −0.06
Preferableness of sweetness [4]: 0.43
Preferableness of whole aroma [4]: 0.64
Preferableness of whole feeling upon eating [4]: 0.31
Preferableness of whole flavor [4]: 0.50
Preferableness of whole taste [4]: 0.61
Strength of sourness [4]: −0.19
Strength of sweetness [4]: 0.95
Strength of whole aroma [4]: 0.26
Strength of whole flavor [4]: 0.57
Strength of whole taste [4]: 0.79
Tongue feeling [4]: −0.19
Unripe flavor [4]: −0.41
drug damage caused by spraying ([5]; Japanese pear “Kousui”, 200 ppm proline sprayed on leaves): any drug damage caused by spraying has not been observed
Harvested number of pears ([5]; Total of all fruit sizes, Total of harvest days, 200 ppm proline sprayed on leaves): 638
Harvested number of pears ([5]; Total of all fruit sizes, harvest day August 18, 200 ppm proline sprayed on leaves): 130
Harvested number of pears ([5]; Total of all fruit sizes, harvest day August 21, 200 ppm proline sprayed on leaves): 185
Harvested number of pears ([5]; Total of all fruit sizes, harvest day August 24, 200 ppm proline sprayed on leaves): 323
Harvested number of pears ([5]; fruit size 2L, Total of harvest days, 200 ppm proline sprayed on leaves): 115
Harvested number of pears ([5]; fruit size 2L, harvest day August 18, 200 ppm proline sprayed on leaves): 33
Harvested number of pears ([5]; fruit size 2L, harvest day August 21, 200 ppm proline sprayed on leaves): 46
Harvested number of pears ([5]; fruit size 2L, harvest day August 24, 200 ppm proline sprayed on leaves): 36
Harvested number of pears ([5]; fruit size 3L, Total of harvest days, 200 ppm proline sprayed on leaves): 233
Harvested number of pears ([5]; fruit size 3L, harvest day August 18, 200 ppm proline sprayed on leaves): 46
Harvested number of pears ([5]; fruit size 3L, harvest day August 21, 200 ppm proline sprayed on leaves): 64
Harvested number of pears ([5]; fruit size 3L, harvest day August 24, 200 ppm proline sprayed on leaves): 123
Harvested number of pears ([5]; fruit size 4L, Total of harvest days, 200 ppm proline sprayed on leaves): 160
Harvested number of pears ([5]; fruit size 4L, harvest day August 18, 200 ppm proline sprayed on leaves): 25
Harvested number of pears ([5]; fruit size 4L, harvest day August 21, 200 ppm proline sprayed on leaves): 32
Harvested number of pears ([5]; fruit size 4L, harvest day August 24, 200 ppm proline sprayed on leaves): 103
Harvested number of pears ([5]; fruit size 5L, Total of harvest days, 200 ppm proline sprayed on leaves): 31
Harvested number of pears ([5]; fruit size 5L, harvest day August 18, 200 ppm proline sprayed on leaves): 0
Harvested number of pears ([5]; fruit size 5L, harvest day August 21, 200 ppm proline sprayed on leaves): 4
Harvested number of pears ([5]; fruit size 5L, harvest day August 24, 200 ppm proline sprayed on leaves): 27
Harvested number of pears ([5]; fruit size L, Total of harvest days, 200 ppm proline sprayed on leaves): 55
Harvested number of pears ([5]; fruit size L, harvest day August 18, 200 ppm proline sprayed on leaves): 19
Harvested number of pears ([5]; fruit size L, harvest day August 21, 200 ppm proline sprayed on leaves): 18
Harvested number of pears ([5]; fruit size L, harvest day August 24, 200 ppm proline sprayed on leaves): 18
Harvested number of pears ([5]; fruit size M, Total of harvest days, 200 ppm proline sprayed on leaves): 20
Harvested number of pears ([5]; fruit size M, harvest day August 18, 200 ppm proline sprayed on leaves): 0
Harvested number of pears ([5]; fruit size M, harvest day August 21, 200 ppm proline sprayed on leaves): 11
Harvested number of pears ([5]; fruit size M, harvest day August 24, 200 ppm proline sprayed on leaves): 9
Harvested number of pears ([5]; fruit size S, Total of harvest days, 200 ppm proline sprayed on leaves): 24
Harvested number of pears ([5]; fruit size S, harvest day August 18, 200 ppm proline sprayed on leaves): 7
Harvested number of pears ([5]; fruit size S, harvest day August 21, 200 ppm proline sprayed on leaves): 10
Harvested number of pears ([5]; fruit size S, harvest day August 24, 200 ppm proline sprayed on leaves): 7
ripening of fruits (fruit number for every harvest day) ([5]; proline-treated section vs control section): fruits ripened earlier as a tendency

— patent US20040209777A1, “Agents for improving the qualities of fruits/grains” (priority 2001, published 2004)
